One experiment deals with HeLa. In words: Proliferation assay (crystal violet), HeLa. Format: cell-based. The settings on record: Homo sapiens, HeLa, 96 h, HeLa cells; 4 days incubation; crystal violet staining; read-out: IC50 inhibition of proliferation, HeLa. In outline: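 Tumor cells seeded at 1000–5000 cells/well in medium with 10% FCS; after 24 h, compounds added at 0.001–10 μM (0.5% DMSO) for 4 days. Cells fixed with glutaraldehyde, stained with crystal violet, dye dissolved in acetic acid and read at 595 nm. IC50 from 4-parameter fit, normalized to zero-point plate and untreated cells.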

The test system of experiment [1] is human cervical tumor cell line HeLa (ATCC CCL-2). In words: SAC-Formation - Nocodazole-Induced Assay. The format is cell-based. The conditions noted are these: Homo sapiens, HeLa, 24 h, HeLa cells, nocodazole 0.1 μg/ml together with test compound, decrease of mitotic cells (phospho-histone H3 Ser10). An outline of the steps: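 HeLa cells, plated overnight, were treated 24 h at 37 °C with nocodazole (0.1 μg/ml final) plus test compound (0.005–20 μM, 0.5% DMSO) added at the same time. After fixation, anti-phospho-histone H3 Ser10 and Hoechst staining gave the mitotic cell fraction by imaging. Values came from four-parameter Hill fits.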

From patent publication US20170334899A1, “AMINO-SUBSTITUTED ISOTHIAZOLES” (Bayer Pharma Aktiengesellschaft, priority 2014, published 2017) come the findings set out here.

The structures appear in SMILES notation. pIC50: −log10 of the molar value.

With `Cc1nsc(Nc2cnc(C(F)(F)F)cn2)c1C(=O)Nc1ccc(F)c(OC[C@H]2CCN(CC(F)(F)F)C2)c1` [Example 398, N-(4-fluoro-3-{[(3S)-1-(2,2,2-trifluoroethyl)pyrrolidin-3-yl]methoxy}phenyl)-3-methyl-5-{[5-(trifluoromethyl)pyrazin-2-yl]amino}-1,2-thiazole-4-carboxamide], the pIC50 was 6.31 with HeLa and 7.55 in experiment [1].

Regarding `Cc1nsc(Nc2cnc(C(F)(F)F)cn2)c1C(=O)Nc1ccc(O[C@@H]2CCN(CCC(F)(F)F)C[C@H]2F)nc1` [Example 368, N-(6-{[(3R,4R)-3-fluoro-1-(3,3,3-trifluoropropyl)piperidin-4-yl]oxy}pyridin-3-yl)-3-methyl-5-{[5-(trifluoromethyl)pyrazin-2-yl]amino}-1,2-thiazole-4-carboxamide], the values for the pIC50 (in the experiment with HeLa; in experiment [1]) were 6.46 and 7.80, respectively.

As for `Cc1nsc(Nc2cnc(C(F)(F)F)cn2)c1C(=O)Nc1ccc(O[C@@H]2CCCN(CC(F)(F)F)C2)nc1` [Example 386, 3-methyl-N-(6-{[(3R)-1-(2,2,2-trifluoroethyl)piperidin-3-yl]oxy}pyridin-3-yl)-5-{[5-(trifluoromethyl)pyrazin-2-yl]amino}-1,2-thiazole-4-carboxamide], the pIC50 is 6.54 in the experiment with HeLa and 7.39 in experiment [1].

With `Cc1nsc(Nc2cnc(C(F)(F)F)cn2)c1C(=O)Nc1ccc(OC2CCCN(C(CF)CF)C2)nc1` (stereo not shown) [Example 333, N-(6-{[1-(1,3-difluoropropan-2-yl)piperidin-3-yl]oxy}pyridin-3-yl)-3-methyl-5-{[5-(trifluoromethyl)pyrazin-2-yl]amino}-1,2-thiazole-4-carboxamide], the pIC50 is 5.92 in the experiment with HeLa and 7.14 in experiment [1].

Regarding `Cc1nsc(Nc2cnc(C(F)(F)F)cn2)c1C(=O)Nc1ccc(N2CCN(CCC(F)(F)F)CC2)cn1` [Example 374, 3-methyl-5-{[5-(trifluoromethyl)pyrazin-2-yl]amino}-N-{5-[4-(3,3,3-trifluoropropyl)piperazin-1-yl]pyridin-2-yl}-1,2-thiazole-4-carboxamide], the pIC50 in the experiment with HeLa is 6.04; in experiment [1] it was 6.92.

With `CCCCN1CCC(COc2ccc(NC(=O)c3c(C)nsc3Nc3cnc(C(F)(F)F)cn3)cn2)C(F)(F)C1` (stereo not shown) [Example 396, N-{6-[(1-butyl-3,3-difluoropiperidin-4-yl)methoxy]pyridin-3-yl}-3-methyl-5-{[5-(trifluoromethyl)pyrazin-2-yl]amino}-1,2-thiazole-4-carboxamide], the values for the pIC50 (with HeLa; in experiment [1]) were 6.34 and 7.85, respectively.

Regarding `Cc1nsc(Nc2cnc(C(F)(F)F)cn2)c1C(=O)Nc1ccc(OCC2CCN(CC(F)(F)F)CC2(F)F)nc1` (stereo not shown) [Example 392, N-(6-{[3,3-difluoro-1-(2,2,2-trifluoroethyl)piperidin-4-yl]methoxy}pyridin-3-yl)-3-methyl-5-{[5-(trifluoromethyl)pyrazin-2-yl]amino}-1,2-thiazole-4-carboxamide], the pIC50 is 6.31 in the experiment on HeLa and 7.13 in experiment [1].

Turning to `Cc1nsc(Nc2cnc(C(F)(F)F)cn2)c1C(=O)Nc1ccc(O[C@@H]2CCCN(CC(F)F)C2)nc1` [Example 385, N-(6-{[(3R)-1-(2,2-difluoroethyl)piperidin-3-yl]oxy}pyridin-3-yl)-3-methyl-5-{[5-(trifluoromethyl)pyrazin-2-yl]amino}-1,2-thiazole-4-carboxamide], the pIC50 in the experiment with HeLa is 6.46; in experiment [1], 6.74.

For `Cc1nsc(Nc2cnc(C(F)(F)F)cn2)c1C(=O)Nc1ccc(C2CCN(CC(F)(F)F)CC2)nc1` [Example 358, 3-methyl-N-{6-[1-(2,2,2-trifluoroethyl)piperidin-4-yl]pyridin-3-yl}-5-{[5-(trifluoromethyl)pyrazin-2-yl]amino}-1,2-thiazole-4-carboxamide], the pIC50 in the experiment on HeLa is 6.49; in experiment [1], 7.52.

With `Cc1nsc(Nc2cnc(C(F)(F)F)cn2)c1C(=O)Nc1ccc(N2CCN(CCC(F)(F)F)CC2)nc1` [Example 361, 3-methyl-5-{[5-(trifluoromethyl)pyrazin-2-yl]amino}-N-{6-[4-(3,3,3-trifluoropropyl)piperazin-1-yl]pyridin-3-yl}-1,2-thiazole-4-carboxamide], the pIC50 is 6.42 in the experiment on HeLa and 7.17 in experiment [1].

As to `Cc1nsc(Nc2cnc(C(F)(F)F)cn2)c1C(=O)Nc1ccc(OC[C@@H]2CCCN(CC(F)F)C2)nc1` [Example 375, N-(6-{[(3R)-1-(2,2-difluoroethyl)piperidin-3-yl]methoxy}pyridin-3-yl)-3-methyl-5-{[5-(trifluoromethyl)pyrazin-2-yl]amino}-1,2-thiazole-4-carboxamide], the pIC50 in the experiment on HeLa was 6.52; in experiment [1] it was 7.40.
